# Experimental data: patent US20240124417A1, “COMPOUNDS USEFUL AS IMMUNOMODULATORS” (Bristol-Myers Squibb Company, priority 2019, published 2024)
# Target: T1, PD-1/PD-L1 (Homo sapiens, UniProt Q9NZQ7)
# T1 construct: TVMV protease site linker (C); made in house; host or cells: HEK293T cells
# Experiment: PD-1/PD-L1 Homogenous Time-Resolved Fluorescence (HTRF) binding assay
# Settings: PD-L1-His 10 nM, PD-1-Ig 20 nM
# Method in brief: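 Inhibitors pre-incubated 15 min with PD-L1-His extracellular domain (10 nM final) in dPBS with 0.1% BSA and 0.05% Tween-20, then PD-1-Ig (20 nM final) added for a further 15 min. Read-out by HTRF with europium cryptate anti-Ig (1 nM) and APC anti-His (20 nM). Related pairs: PD-1-Ig/PD-L2-His (20/5 nM), CD80-His/PD-L1-Ig (100/10 nM).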
# T1 sequence (Q9NZQ7 18-239): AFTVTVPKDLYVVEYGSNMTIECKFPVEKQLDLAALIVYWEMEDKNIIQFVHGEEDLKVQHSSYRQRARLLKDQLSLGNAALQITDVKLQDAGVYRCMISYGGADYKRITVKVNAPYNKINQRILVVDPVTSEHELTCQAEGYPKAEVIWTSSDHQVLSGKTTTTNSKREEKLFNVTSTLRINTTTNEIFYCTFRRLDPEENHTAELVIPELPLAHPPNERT
row,SMILES,IC50
1,"Cc1c(COc2cc(OCc3cncc(C#N)c3)c(CNCc3ncccn3)cc2Cl)cccc1-c1cccc(OCc2cncnc2)c1Cl [Example 2063, 5-((4-chloro-5-((2′-chloro-2-methyl-3′-(pyrimidin-5-ylmethoxy)-[1,1′-biphenyl]-3-yl)methoxy)-2-(((pyrimidin-2-ylmethyl)amino)methyl)phenoxy)methyl)nicotinonitrile]",28.5 nM
2,"Cc1c(COc2cc(OCc3cncc(C#N)c3)c(CNCc3cc[nH]n3)cc2Cl)cccc1-c1cccc(OCC2CCCN(C)C2)c1Cl (stereo not drawn) [Example 2588, 5-((2-((((1H-pyrazol-3-yl)methyl)amino)methyl)-4-chloro-5-((2′-chloro-2-methyl-3′-((1-methylpiperidin-3-yl)methoxy)-[1,1′-biphenyl]-3-yl)methoxy)phenoxy)methyl)nicotinonitrile]",2 nM
3,"Cc1c(COc2cc(OCc3cncc(C#N)c3)c(CNCc3nc4ccccc4s3)cc2Cl)cccc1-c1cccc(OCCCN2CC[C@@H](O)C2)c1C [Example 2549, (R)-5-((2-(((benzo[d]thiazol-2-ylmethyl)amino)methyl)-4-chloro-5-((3′-(3-(3-hydroxypyrrolidin-1-yl)propoxy)-2,2′-dimethyl-[1,1′-biphenyl]-3-yl)methoxy)phenoxy)methyl)nicotinonitrile]",33.2 nM
4,"Cc1c(COc2cc(OCc3cncc(C#N)c3)c(CNCc3cc(C)n(C)n3)cc2Cl)cccc1-c1cccc(OCC2CCCN(C)C2)c1Cl (stereo not drawn) [Example 2596, 5-((4-chloro-5-((2′-chloro-2-methyl-3′-((1-methylpiperidin-3-yl)methoxy)-[1,1′-biphenyl]-3-yl)methoxy)-2-((((1,5-dimethyl-1H-pyrazol-3-yl)methyl)amino)methyl)phenoxy)methyl)nicotinonitrile]",2.9 nM
5,"Cc1c(COc2cc(OCc3cncc(C#N)c3)c(CNCc3cnco3)cc2Cl)cccc1-c1cccc(OCC2CCCN(C)C2)c1Cl (stereo not drawn) [Example 2591, 5-((4-chloro-5-((2′-chloro-2-methyl-3′-((1-methylpiperidin-3-yl)methoxy)-[1,1′-biphenyl]-3-yl)methoxy)-2-(((oxazol-5-ylmethyl)amino)methyl)phenoxy)methyl)nicotinonitrile]",1.9 nM
6,"CC(=O)NC1CCN(CCCOc2cccc(-c3cccc(COc4cc(OCc5cncc(C#N)c5)c(CN5CCC(c6cnn(C)c6)C5)cc4Cl)c3C)c2C)CC1 (stereo not drawn) [Example 1052, N-(1-(3-((3′-((2-Chloro-5-((5-cyanopyridin-3-yl)methoxy)-4-((3-(1-methyl-1H-pyrazol-4-yl)pyrrolidin-1-yl)methyl)phenoxy)methyl)-2,2′-dimethyl-[1,1′-biphenyl]-3-yl)oxy)-propyl)piperidin-4-yl)acetamide]",3.4 nM
7,"Cc1c(COc2cc(OCc3cncc(C#N)c3)c(CN(C)Cc3cn[nH]c3)cc2Cl)cccc1-c1cccc(OCC2CCCN(C)C2)c1Cl (stereo not drawn) [Example 2581, 5-((2-((((1H-pyrazol-4-yl)methyl)(methyl)amino)methyl)-4-chloro-5-((2′-chloro-2-methyl-3′-((1-methylpiperidin-3-yl)methoxy)-[1,1′-biphenyl]-3-yl)methoxy)phenoxy)methyl)nicotinonitrile]",3.4 nM
8,"Cc1c(COc2cc(OCc3cncc(C#N)c3)c(CNCc3cc(-c4ccccc4)on3)cc2Cl)cccc1-c1cccc(OCCCN2CC[C@@H](O)C2)c1C [Example 2538, (R)-5-((4-chloro-5-((3′-(3-(3-hydroxypyrrolidin-1-yl)propoxy)-2,2′-dimethyl-[1,1′-biphenyl]-3-yl)methoxy)-2-((((5-phenylisoxazol-3-yl)methyl)amino)methyl)phenoxy)methyl)nicotinonitrile]",43.8 nM
9,"Cc1nc2c(s1)CN(Cc1cc(Cl)c(OCc3cccc(-c4cccc(OCCCN5CC[C@@H](O)C5)c4C)c3C)cc1OCc1cncc(C#N)c1)CC2 [Example 2503, (R)-5-((4-chloro-5-((3′-(3-(3-hydroxypyrrolidin-1-yl)propoxy)-2,2′-dimethyl-[1,1′-biphenyl]-3-yl)methoxy)-2-((2-methyl-6,7-dihydrothiazolo[5,4-c]pyridin-5(4H)yl)methyl)phenoxy)methyl)nicotinonitrile]",3.9 nM
10,"CC(=O)NC1CCN(CCCOc2cccc(-c3cccc(COc4cc(OCc5cncc(C#N)c5)c(CN(C)CC(C)c5nn[nH]n5)cc4Cl)c3C)c2C)CC1 (stereo not drawn) [Example 1047, N-(1-(3-((3′-((4-(((2-(2H-Tetrazol-5-yl)propyl)(methyl)amino)methyl)-2-chloro-5-((5-cyanopyridin-3-yl)methoxy)phenoxy)methyl)-2,2′-dimethyl-[1,1′-biphenyl]-3-yl)oxy)-propyl)piperidin-4-yl)acetamide]",2.4 nM

# The next compounds have a lower IC50 than those just listed; values first:
row,IC50,SMILES
1,0.6 nM,"Cc1c[nH]c(CN(C)Cc2cc(Cl)c(OCc3cccc(-c4cccc(OCCCN5CC[C@@H](O)C5)c4C)c3C)cc2OCc2cncc(C#N)c2)n1 [Example 2024, (R)-5-((4-chloro-5-((3′-(3-(3-hydroxypyrrolidin-1-yl)propoxy)-2,2′-dimethyl-[1,1′-biphenyl]-3-yl)methoxy)-2-((methyl((4-methyl-1H-imidazol-2-yl)methyl)amino)methyl)phenoxy)methyl)nicotinonitrile]"
2,0.5 nM,"Cc1c(COc2cc(OCc3cncc(C#N)c3)c(CN3CCCC(c4nnn[nH]4)C3)cc2Cl)cccc1-c1cccc(OCCCN2CC[C@@H](O)C2)c1C (stereo partly drawn) [Example 1018, 5-((2-((3-(1H-Tetrazol-5-yl)piperidin-1-yl)methyl)-4-chloro-5-((3′-(3-((R)-3-hydroxy-pyrrolidin-1-yl)propoxy)-2,2′-dimethyl-[1,1′-biphenyl]-3-yl)methoxy)phenoxy)methyl)-nicotinonitrile]"
3,1.8 nM,"Cc1c(COc2cc(OCc3cncc(C#N)c3)c(CNCc3ncco3)cc2Cl)cccc1-c1cccc(OCCCN2CC[C@@H](O)C2)c1C [Example 2546, (R)-5-((4-chloro-5-((3′-(3-(3-hydroxypyrrolidin-1-yl)propoxy)-2,2′-dimethyl-[1,1′-biphenyl]-3-yl)methoxy)-2-(((oxazol-2-ylmethyl)amino)methyl)phenoxy)methyl)nicotinonitrile]"
4,0.4 nM,"Cc1c(COc2cc(OCc3cncc(C#N)c3)c(CN(C)C(C)c3nnn[nH]3)cc2Cl)cccc1-c1cccc(OCCCNC[C@H](O)CO)c1Cl (stereo partly drawn) [Example 1034, 5-((2-(((1-(1H-Tetrazol-5-yl)ethyl)(methyl)amino)methyl)-4-chloro-5-((2′-chloro-3′-(3-(((S)-2,3-dihydroxypropyl)amino)propoxy)-2-methyl-[1,1′-biphenyl]-3-yl)methoxy)-phenoxy)methyl)-nicotinonitrile]"
5,1.7 nM,"Cc1c(COc2cc(OCc3cncc(C#N)c3)c(CN(C)CCc3cscn3)cc2Cl)cccc1-c1cccc(OCCCN2CC[C@@H](O)C2)c1C [Example 2507, (R)-5-((4-chloro-5-((3′-(3-(3-hydroxypyrrolidin-1-yl)propoxy)-2,2′-dimethyl-[1,1′-biphenyl]-3-yl)methoxy)-2-((methyl(2-(thiazol-4-yl)ethyl)amino)methyl)phenoxy)methyl)nicotinonitrile]"
6,0.7 nM,"Cc1c(COc2cc(OCc3cncc(C#N)c3)c(CN(C)Cc3nc[nH]n3)cc2Cl)cccc1-c1cccc(OCC2CCCN(C)C2)c1Cl (stereo not drawn) [Example 2618, 5-((2-((((1H-1,2,4-triazol-3-yl)methyl)(methyl)amino)methyl)-4-chloro-5-((2′-chloro-2-methyl-3′-((1-methylpiperidin-3-yl)methoxy)-[1,1′-biphenyl]-3-yl)methoxy)phenoxy)methyl)nicotinonitrile]"
7,1.2 nM,"CC(=O)NC1CCN(CCCOc2cccc(-c3cccc(COc4cc(OCc5cncc(C#N)c5)c(CN5CCCCC5c5nnn[nH]5)cc4Cl)c3C)c2Cl)CC1 (stereo not drawn) [Example 1055, N-(1-(3-((3′-((4-((2-(1H-Tetrazol-5-yl)piperidin-1-yl)methyl)-2-chloro-5-((5-cyano-pyridin-3-yl)methoxy)phenoxy)methyl)-2-chloro-2′-methyl-[1,1′-biphenyl]-3-yl)oxy)-propyl)-piperidin-4-yl)acetamide]"
8,1.1 nM,"Cc1c(COc2cc(OCc3cncc(C#N)c3)c(CN(C)Cc3cnccn3)cc2Cl)cccc1-c1cccc(OCCCN2CC[C@@H](O)C2)c1C [Example 2030, (R)-5-((4-chloro-5-((3′-(3-(3-hydroxypyrrolidin-1-yl)propoxy)-2,2′-dimethyl-[1,1′-biphenyl]-3-yl)methoxy)-2-((methyl(pyrazin-2-ylmethyl)amino)methyl)phenoxy)methyl)nicotinonitrile]"
9,0.2 nM,"Cc1c(COc2cc(OCc3cncc(C#N)c3)c(CN(C)Cc3ccccn3)cc2Cl)cccc1-c1cccc(OCCCN2CC[C@@H](O)C2)c1C [Example 2028, (R)-5-((4-chloro-5-((3′-(3-(3-hydroxypyrrolidin-1-yl)propoxy)-2,2′-dimethyl-[1,1′-biphenyl]-3-yl)methoxy)-2-((methyl(pyridin-2-ylmethyl)amino)methyl)phenoxy)methyl)nicotinonitrile]"
10,0.5 nM,"Cc1c(COc2cc(OCc3cncc(C#N)c3)c(CNC3CCc4[nH]ncc4C3)cc2Cl)cccc1-c1cccc(OCCCN2CC[C@@H](O)C2)c1C (stereo partly drawn) [Example 2563, 5-((4-chloro-5-((3′-(3-((R)-3-hydroxypyrrolidin-1-yl)propoxy)-2,2′-dimethyl-[1,1′-biphenyl]-3-yl)methoxy)-2-(((4,5,6,7-tetrahydro-1H-indazol-5-yl)amino)methyl)phenoxy)methyl)nicotinonitrile]"
11,1.6 nM,"Cc1cc(CN(C)Cc2cc(Cl)c(OCc3cccc(-c4cccc(OCCCN5CC[C@@H](O)C5)c4C)c3C)cc2OCc2cncc(C#N)c2)[nH]n1 [Example 2025, (R)-5-((4-chloro-5-((3′-(3-(3-hydroxypyrrolidin-1-yl)propoxy)-2,2′-dimethyl-[1,1′-biphenyl]-3-yl)methoxy)-2-((methyl((3-methyl-1H-pyrazol-5-yl)methyl)amino)methyl)phenoxy)methyl)nicotinonitrile]"
